In patent US7115253B1, “Process for stabilizing antioxidant compounds, and aqueous compositions” (Industria E Comercio De Cosmeticos Natura Ltda., priority 1999, dated 2006):

Test: degradation kinetics of 10% LAA solution under ultraviolet radiation
Assay type: physicochemical
Description: Comparative tests carried out by the inventors confirm the important paper of the reducing agent in the stabilization of antioxidants as per information obtained by Wrinkler B. S. in his work cited herein. A first test was carried out in order to determine the degradation kinetics of a 10% LAA solution in water-containing medium (m/v) under ultraviolet radiation, using a ultraviolet spectrophotometer, for 60 minutes.
A stoichiometric amount of the reducing agent of the oxidation reaction, that is, Glutathion, was added to the previous post-irradiated solution. The resultant solution was irradiated with ultraviolet radiation for further 60 minutes. By analyzing the remaining LAA, it could be noticed that 9.50% (m/v) thereof was still present. Therefore, the degradation of the LAA is dramatically minimized after the reducing agent is added.
In a third test, a 10% LAA solution was prepared in a water-containing medium (m/v) with a stoichiometric amount of the reducing agent Glutathion. […] However, the use of said compound in stoichiometric amounts still presents the already mentioned disadvantages.

remaining concentration of molecular LAA (10% LAA solution in water-containing medium, ultraviolet radiation 60 minutes, no reducing agent): about 9.58 % (m/v)
remaining LAA (10% LAA solution with stoichiometric amount of Glutathion, ultraviolet radiation 60 minutes): 9.98 % (m/v)
remaining LAA (stoichiometric Glutathion added to the post-irradiated solution, ultraviolet radiation for further 60 minutes): 9.50 % (m/v)
Structure (SMILES): O=C1O[C@H]([C@@H](O)CO)C(O)=C1O [LAA, levogyrous ascorbic acid]
